Reference: PMC5700161, “Structure of human immunoproteasome with a reversible and noncompetitive inhibitor that selectively inhibits activated lymphocytes” (Nature Communications, 2017)
“Also recorded” adds a separate entry of the source.

Assays:
CD19+ non-ASCs = assay: Apoptosis and viability of CD19+ non-ASCs in ASC differentiation culture; format: cell-based
Procedure: (§1) The immunoproteasome plays important roles in T cell differentiation and proliferation and dendritic cell activation and maturation[14],[20],[24]. However, its role in B cell differentiation is not well understood. […] Differentiated ASCs were then exposed to PKS21221 at indicated concentrations and cell survival was determined with Annexin V and 7-aminoactinomycin D (7-AAD) at three-time points (12-h, 24-h, and 48-h after treatment). […] In addition, the cytotoxicity of PKS21221 to different cell populations in PBMC was examined and compared to the cytotoxicity of bortezomib. PBMCs were incubated with PKS21221 or bortezomib, and the viability was assessed in T cells (CD3^+), B cells (CD19^+), monocytes (CD14^+) and dendritic cells (CD3^−CD19^−CD14^−CD16^−CD11c^+HLA-DR^+), respectively (Supplementary Fig. 13b–e).
(§2) PBMCs were cultured with or without IL-2/R848 for 5 days, followed by 12-h incubation with PKS21221 at different concentrations. a Representative flow cytometry plots of cells treated with IL-2 and R848 in the presence and absence of PKS21221. […] Annexin V^+7-AAD^− cells were referred as “Early apoptosis” population, and Annexin V^+7-AAD^+ cells were referred as “Dead” population. d Percentage of early apoptotic ASCs (left) and dead ASCs (right), after 12-h incubation with PKS21221. […]

[1] = system: β5(i+c) in Karpas 1106P cells; assay: Intracellular β5(i+c) activity in Karpas 1106P cells, suc-LLVY-luciferin; format: cell-based
Procedure: To determine if this class of inhibitors is cell penetrable, we treated the B-cell lymphoma line Karpas 1106P[28] (expressing a high proportion of i-20S over c-20S) with PKS21221 before incubation with either (Ac-ANW)2-R110 (a specific substrate of β5i) or suc-LLVY-luciferin (a substrate of β5) (Fig. 4a).
(§3) Fig. 4 Intracellular proteasome inhibition by PKS21221 and its cytotoxicity against transformed cell lines. a Karpas 1106P lymphoma cells (white and black symbols) or HepG2 cells (blue symbols) were treated with PKS21221 for 2 h at the concentrations indicated prior to incubation with substrate (Ac-ANW)2R110 for β5i (Karpas cells) or suc-LLVY-luciferin for β5 (Karpas cells and HepG2 cells). […] Cell viability was determined by CellTiter-glo. Data are means ± SEM of three to four independent experiments

MM.1S cells = assay: Cytotoxicity, CellTiter-glo, MM.1S; format: cell-based; conditions: 72 h
Procedure: as §3
(§4) We incubated MM.1S, RPMI 8226, Karpas and HepG2 cells with PKS21221 at different concentrations, and determined cell viability after 72 h (Fig. 4b).
(§5) We used Karpas 1106P B lymphoma cell line (Cat. No. 06072607, Aldrich)[15],[16],[52], HepG2 (HB-8065, ATCC), MM.1S (Cat. No. CRL-2974, ATCC). Cells were cultured at 37 °C in a humidified air/5% CO2 atmosphere in medium supplemented with 10% fetal bovine serum, except for the medium for Karpas 1106P cells which contained 20% fetal bovine serum, and 100 units per ml penicillin, 100 μg per ml streptomycin in RPMI 1640 medium. Karpas 1106P was used at 80,000 cells per well, MM.1S at 100,000 cells per well, and HepG2 at 12,000 cells per well. […] Viable cells were counted using Cell-titer Glo assay kit. EC50s were calculated using PRISM (Graphpad).

Karpas 1106P cells = assay: Cytotoxicity, CellTiter-glo, Karpas 1106P; conditions: read-out: EC50 Karpas, 72 h
Procedure: as §3, §4, §5

β1c = β1c (Homo sapiens, UniProt P28072); assay: IC50 against β1c of human constitutive proteasome (Z-LLE-AMC); conditions: read-out: IC50 1c - LLE (β1c); substrate Z-LLE-AMC
Procedure: (§6) IC50s of all compounds against β5i and β5c (Table 2) and against β1i, β2i, β1c, and β2c (Supplementary Table 1) were determined following reported methods[8].

luciferase = assay: Luciferase counter-test; format: biochemical; conditions: at 100 µM, tested over 0.002–100 µM
PBMCs = assay: Viability of total PBMCs in ASC differentiation culture (7-AAD); format: cell-based
Procedure: as §1, §2

β1i = β1i (Homo sapiens, UniProt P28065); assay: IC50 against β1i of human immunoproteasome (Ac-PAL-AMC); conditions: read-out: IC50 1i - PAL (β1i); substrate Ac-PAL-AMC
Procedure: as §6

RPMI 8226 cells = assay: Cytotoxicity, CellTiter-glo, RPMI 8226; format: cell-based; conditions: 72 h
Procedure: as §3, §4, §5

β2c = β2c (Homo sapiens, UniProt Q99436); assay: IC50 against β2c of human constitutive proteasome (Z-VLR-AMC); conditions: read-out: IC50 2c - VLR (β2c); substrate Z-VLR-AMC
Procedure: as §6

CD19+CD38+CD27+ ASCs = assay: Survival and apoptosis of differentiated antibody-secreting cells (ASCs) from PBMC, Annexin V/7-AAD; format: cell-based, human
Procedure: as §1
PBMCs were cultured with or without IL-2/R848 for 5 days, followed by 12-h incubation with PKS21221 at different concentrations. a Representative flow cytometry plots of cells treated with IL-2 and R848 in the presence and absence of PKS21221. […] Annexin V^+7-AAD^− cells were referred as “Early apoptosis” population, and Annexin V^+7-AAD^+ cells were referred as “Dead” population. d Percentage of early apoptotic ASCs (left) and dead ASCs (right), after 12-h incubation with PKS21221.
Human peripheral blood samples were obtained from five different healthy volunteers (BWH Specimen Bank). Peripheral blood mononuclear cells (PBMCs) were isolated by density gradient centrifugation using Lymphoprep (StemCell Technologies). PBMCs were cultured at 1.5 × 10^6 cells per mL in RPMI 1640 media (Lonza), supplemented with 10% human serum (GemCell) (10% HS-RPMI), recombinant human IL-2 10 ng per mL (or 100 U per ml, BioLegend) and R848 1 µg per mL (Cayman Chemicals) for 5 days, at 37 °C, 5% CO2. PKS21221 in DMSO, or DMSO only for control, was added to the culture media on day 5, and cells were incubated for additional 12, 24, and 48 h.

HepG2 cells = assay: Cytotoxicity, CellTiter-glo, HepG2; conditions: read-out: EC50 HepG2, 72 h
Procedure: as §3, §4, §5

CD19− cells = assay: Apoptosis and viability of CD19− cells in ASC differentiation culture; format: cell-based
Procedure: as §1, §2

In the case of `Cc1ccc(S(=O)(=O)N[C@@H](CC(=O)NC(C)(C)C)C(=O)NCCNC(=O)c2cc(-c3ccccc3F)ccc2F)cc1` [PKS21221], the “apoptosis of CD19+ non-ASCs” value (CD19+ non-ASCs) is reported as “slightly enhanced”, the “viability of CD19+ non-ASCs” value (CD19+ non-ASCs) is reported as “did not affect viability” and the IC50 [1] is reported as 118 ± 33 nM. The EC50 (MM.1S cells) was 78 ± 30 nM, the EC50 (Karpas 1106P cells) was 740 ± 145 nM and the IC50 (β1c) was > 50000 nM. The “inhibition of luciferase activity” value (luciferase) was “does not inhibit”, the “overall viability of PBMCs” value (PBMCs) was “not affected; also recorded: did not affect overall viability” and the IC50 (β1i) was > 50000 nM. The EC50 (RPMI 8226 cells) was 66 ± 6 nM, the IC50 (β2c) was > 50000 nM and the “percentage of viable ASC” value (CD19+CD38+CD27+ ASCs; 12-h, 24-h, 48-h after treatment) was “decreased with PKS21221 treatment in a dose- and time-dependent manner”. The “ASC percentage in ASC differentiating culture” value (CD19+CD38+CD27+ ASCs; added for 12 hours on Day 5) was “decreased the percentage of”, the EC50 (HepG2 cells) was 2320 ± 630 nM and the “apoptosis of CD19− cells” value (CD19− cells) was “no increase”. The “viability of CD19− cells” value (CD19− cells) was “did not affect viability”.
